Data as given in ChEMBL document CHEMBL5042473 (J Med Chem, 2022).
pIC50: −log10 of the molar value.

Tests used:
[1] = system: Splenocyte; experiment: Cytotoxicity against Balb/c mouse splenocytes assessed as metabolic activity at 1 to 10 nM incubated for 24 hrs by MTT assay; type: toxicity, cell-based; conditions: 0.01 µM, dose 1-10 nM
[2] = system: Blood; experiment: Antiinflammatory activity against LPS-stimulated C57BL/6 mouse whole blood assessed as reduction in TNF-alpha at 1 nM incubated for 24 hrs by ELISA based method; type: functional; parameters: scale not given: the % may be the effect or the level left
[3] = molecular target: Mitogen-activated protein kinase 14 (Homo sapiens, UniProt Q16539); experiment: Inhibition of human p38 MAPK alpha incubated for 1 hr by photometric method
Sequence of Mitogen-activated protein kinase 14 (Q16539 whole entry): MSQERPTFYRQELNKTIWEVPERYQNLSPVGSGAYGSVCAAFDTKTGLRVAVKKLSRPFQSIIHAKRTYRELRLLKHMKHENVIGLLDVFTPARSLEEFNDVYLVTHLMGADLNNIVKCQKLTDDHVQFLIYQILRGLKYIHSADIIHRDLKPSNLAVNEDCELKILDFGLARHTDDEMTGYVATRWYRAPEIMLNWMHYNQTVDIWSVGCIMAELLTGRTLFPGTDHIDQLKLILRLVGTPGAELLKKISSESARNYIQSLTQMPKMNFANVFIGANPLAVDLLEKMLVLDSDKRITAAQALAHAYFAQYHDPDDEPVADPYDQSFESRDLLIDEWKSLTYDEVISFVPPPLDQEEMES

[4] = Drug uptake in mouse C57BL/6 brain at 0.4 mg/kg,po measured upto 240 mins by LC-MS/MS analysis; type: ADME, organism-based; conditions: in vivo, 4 h
[5] = Cytotoxicity against Balb/c mouse splenocytes assessed as metabolic activity at 100 nM incubated for 24 hrs by MTT assay relative to LPS-stimulated splenocytes; type: toxicity, cell-based, Splenocyte; conditions: read-out: Activity
[6] = Drug uptake in mouse C57BL/6 brain at 0.4 mg/kg,iv measured upto 240 mins by LC-MS/MS analysis; type: ADME, organism-based; conditions: in vivo, 4 h
[7] = Metabolic stability in human liver microsomes assessed as parent compound remaining incubated for 120 mins; type: ADME, Microsome; conditions: read-out: Stability
[8] = molecular target: T1, CYP1A2 (Homo sapiens, UniProt P05177); experiment: Inhibition of human recombinant CYP1A2 at 10 uM relative to control; type: ADME
T1 sequence (P05177 whole entry): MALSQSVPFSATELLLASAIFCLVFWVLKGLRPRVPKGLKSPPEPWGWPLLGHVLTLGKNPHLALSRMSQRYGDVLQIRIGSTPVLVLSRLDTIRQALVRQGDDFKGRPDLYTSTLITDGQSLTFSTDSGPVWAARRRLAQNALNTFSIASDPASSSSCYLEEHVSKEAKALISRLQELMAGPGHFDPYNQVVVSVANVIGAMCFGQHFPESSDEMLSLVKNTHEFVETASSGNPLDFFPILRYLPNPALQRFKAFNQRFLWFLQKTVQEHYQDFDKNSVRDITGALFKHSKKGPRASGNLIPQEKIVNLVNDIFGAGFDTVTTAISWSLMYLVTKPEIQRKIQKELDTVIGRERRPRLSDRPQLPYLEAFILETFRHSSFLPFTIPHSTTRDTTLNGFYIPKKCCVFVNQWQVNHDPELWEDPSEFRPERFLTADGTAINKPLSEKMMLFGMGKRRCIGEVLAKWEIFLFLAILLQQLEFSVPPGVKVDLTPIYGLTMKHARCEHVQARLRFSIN

[9] = molecular target: CYP3A4 (Homo sapiens, UniProt P08684); experiment: Inhibition of human recombinant CYP3A4 at 10 uM relative to control; type: ADME
Sequence of CYP3A4 (P08684 whole entry): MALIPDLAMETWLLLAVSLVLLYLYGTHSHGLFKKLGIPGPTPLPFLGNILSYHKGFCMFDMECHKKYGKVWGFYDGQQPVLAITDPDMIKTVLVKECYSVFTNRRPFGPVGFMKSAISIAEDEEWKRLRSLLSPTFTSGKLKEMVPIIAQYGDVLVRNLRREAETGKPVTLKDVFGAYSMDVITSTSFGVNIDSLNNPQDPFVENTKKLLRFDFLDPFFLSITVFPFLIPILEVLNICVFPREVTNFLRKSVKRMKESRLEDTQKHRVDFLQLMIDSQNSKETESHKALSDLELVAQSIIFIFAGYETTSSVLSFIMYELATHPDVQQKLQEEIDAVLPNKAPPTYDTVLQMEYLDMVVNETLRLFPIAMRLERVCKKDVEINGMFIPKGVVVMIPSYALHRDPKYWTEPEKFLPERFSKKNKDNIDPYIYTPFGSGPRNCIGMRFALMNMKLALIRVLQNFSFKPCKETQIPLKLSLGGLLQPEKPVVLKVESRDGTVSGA

[10] = molecular target: CYP2D6 (Homo sapiens, UniProt P10635); experiment: Inhibition of human recombinant CYP2D6 at 10 uM relative to control; type: ADME
Sequence of CYP2D6 (P10635 whole entry): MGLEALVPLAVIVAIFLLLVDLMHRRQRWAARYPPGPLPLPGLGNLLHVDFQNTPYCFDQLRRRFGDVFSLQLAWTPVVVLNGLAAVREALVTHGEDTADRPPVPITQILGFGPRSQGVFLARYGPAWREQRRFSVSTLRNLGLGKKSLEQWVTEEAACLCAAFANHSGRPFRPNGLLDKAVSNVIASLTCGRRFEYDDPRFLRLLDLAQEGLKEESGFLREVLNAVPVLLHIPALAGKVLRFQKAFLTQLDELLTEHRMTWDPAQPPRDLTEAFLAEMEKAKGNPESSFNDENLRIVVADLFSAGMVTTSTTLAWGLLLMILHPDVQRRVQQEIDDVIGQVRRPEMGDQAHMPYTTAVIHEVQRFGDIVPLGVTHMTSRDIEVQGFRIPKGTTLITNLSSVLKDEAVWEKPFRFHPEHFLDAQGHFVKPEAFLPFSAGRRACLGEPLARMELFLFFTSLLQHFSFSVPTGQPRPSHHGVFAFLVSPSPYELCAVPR

[11] = Drug uptake in RjOrl:Swiss (CD-1) mouse brain at 10 mg/kg, iv administered measured after 2 hrs by LC-MS/MS analysis; type: ADME, organism-based; conditions: read-out: Ct
[12] = molecular target: hERG (Homo sapiens, UniProt Q12809); experiment: Inhibition of hERG at 10 uM by fluorimetric analysis relative to control; type: toxicity
Sequence of hERG (Q12809 whole entry): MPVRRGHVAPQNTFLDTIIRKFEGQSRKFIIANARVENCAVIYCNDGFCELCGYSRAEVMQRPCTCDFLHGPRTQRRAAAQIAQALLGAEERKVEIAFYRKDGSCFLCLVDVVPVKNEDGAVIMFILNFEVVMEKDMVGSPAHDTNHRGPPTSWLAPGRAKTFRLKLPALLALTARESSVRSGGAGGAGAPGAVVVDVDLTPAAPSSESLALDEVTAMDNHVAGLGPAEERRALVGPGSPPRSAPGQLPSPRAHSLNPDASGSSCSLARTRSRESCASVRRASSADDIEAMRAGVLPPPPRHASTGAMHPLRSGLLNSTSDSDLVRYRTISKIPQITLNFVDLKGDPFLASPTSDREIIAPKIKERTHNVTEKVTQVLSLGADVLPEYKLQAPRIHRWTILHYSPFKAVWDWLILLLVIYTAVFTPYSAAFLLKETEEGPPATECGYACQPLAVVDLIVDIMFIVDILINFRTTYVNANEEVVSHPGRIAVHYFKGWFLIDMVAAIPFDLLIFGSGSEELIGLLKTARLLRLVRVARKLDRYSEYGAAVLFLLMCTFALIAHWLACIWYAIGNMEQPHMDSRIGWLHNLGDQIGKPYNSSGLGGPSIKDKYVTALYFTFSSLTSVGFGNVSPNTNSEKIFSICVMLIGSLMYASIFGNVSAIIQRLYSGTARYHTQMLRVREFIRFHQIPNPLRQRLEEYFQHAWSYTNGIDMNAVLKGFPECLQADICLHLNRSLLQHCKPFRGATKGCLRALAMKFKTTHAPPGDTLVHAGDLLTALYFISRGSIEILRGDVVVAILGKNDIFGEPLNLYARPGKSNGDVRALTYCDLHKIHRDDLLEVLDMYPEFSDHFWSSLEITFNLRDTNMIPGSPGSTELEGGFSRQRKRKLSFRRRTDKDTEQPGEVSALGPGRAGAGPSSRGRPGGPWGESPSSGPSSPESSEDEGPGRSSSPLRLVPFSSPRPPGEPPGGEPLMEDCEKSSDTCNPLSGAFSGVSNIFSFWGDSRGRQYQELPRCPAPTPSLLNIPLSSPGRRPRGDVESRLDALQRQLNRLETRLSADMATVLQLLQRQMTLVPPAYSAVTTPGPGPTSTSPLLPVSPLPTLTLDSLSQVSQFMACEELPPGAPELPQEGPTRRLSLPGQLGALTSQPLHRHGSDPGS

[13] = molecular target: CYP2C19 (Homo sapiens, UniProt P33261); experiment: Inhibition of human recombinant CYP2C19 at 10 uM relative to control; type: ADME
Sequence of CYP2C19 (P33261 whole entry): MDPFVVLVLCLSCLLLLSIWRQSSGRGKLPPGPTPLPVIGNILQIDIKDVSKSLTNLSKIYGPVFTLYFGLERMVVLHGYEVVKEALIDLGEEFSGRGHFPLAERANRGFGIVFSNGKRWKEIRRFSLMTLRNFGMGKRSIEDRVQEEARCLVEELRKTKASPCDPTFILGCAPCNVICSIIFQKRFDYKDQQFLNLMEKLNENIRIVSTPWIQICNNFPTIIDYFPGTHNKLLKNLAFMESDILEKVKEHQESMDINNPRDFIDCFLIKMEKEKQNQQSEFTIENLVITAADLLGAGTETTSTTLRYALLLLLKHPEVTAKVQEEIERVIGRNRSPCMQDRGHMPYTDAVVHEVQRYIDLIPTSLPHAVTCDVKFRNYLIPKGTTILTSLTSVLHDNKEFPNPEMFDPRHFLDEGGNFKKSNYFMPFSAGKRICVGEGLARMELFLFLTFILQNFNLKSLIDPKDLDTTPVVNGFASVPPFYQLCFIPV

[14] = Ratio of drug concentration in RjOrl:Swiss (CD-1) mouse brain to plasma at 10mg/kg, iv administered measured after 2 hrs by LC-MS/MS analysis; type: ADME, organism-based; conditions: brain and plasma, read-out: BPR
[15] = molecular target: CYP2C9 (Homo sapiens, UniProt P11712); experiment: Inhibition of human recombinant CYP2C9 at 10 uM relative to control; type: ADME
Sequence of CYP2C9 (P11712 whole entry): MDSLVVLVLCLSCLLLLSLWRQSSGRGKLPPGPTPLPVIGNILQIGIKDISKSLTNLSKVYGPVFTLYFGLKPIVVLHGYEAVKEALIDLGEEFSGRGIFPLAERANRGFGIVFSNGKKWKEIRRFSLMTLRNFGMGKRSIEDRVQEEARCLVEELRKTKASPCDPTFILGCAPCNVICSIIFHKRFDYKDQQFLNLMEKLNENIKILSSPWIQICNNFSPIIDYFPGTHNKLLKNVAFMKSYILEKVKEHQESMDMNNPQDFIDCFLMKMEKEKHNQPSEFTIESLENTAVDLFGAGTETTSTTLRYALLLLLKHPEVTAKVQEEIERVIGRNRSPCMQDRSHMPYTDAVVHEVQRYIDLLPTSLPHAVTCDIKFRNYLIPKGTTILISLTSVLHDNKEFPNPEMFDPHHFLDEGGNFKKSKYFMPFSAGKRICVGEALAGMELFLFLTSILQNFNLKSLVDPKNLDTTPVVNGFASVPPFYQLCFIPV

[16] = Drug concentration in rat brain at 6 mg/kg, iv measured after 24 hrs by LC/MS/MS analysis; conditions: in vivo
[17] = Drug concentration in rat plasma at 6 mg/kg, iv measured after 24 hrs by LC/MS/MS analysis
[18] = system: Blood; experiment: Antiinflammatory activity against LPS-stimulated C57BL/6 mouse whole blood assessed as reduction in TNF-alpha at 10 nM incubated for 24 hrs by ELISA based method; type: functional; conditions: C57BL/6, Blood
[19] = system: Blood; experiment: Antiinflammatory activity against LPS-stimulated C57BL/6 mouse whole blood assessed as reduction in IL-6 incubated for 24 hrs by ELISA based method; type: functional; parameters: scale not given: the % may be the effect or the level left; conditions: dose 1-100 nM, at 1 to 100 nM
[20] = Ratio of drug concentration in rat brain to plasma; conditions: brain and plasma
[21] = Drug concentration in rat brain at 4.5 mg/kg, po measured after 1 hrs by LC/MS/MS analysis; type: ADME, organism-based; conditions: in vivo
[22] = Drug concentration in rat plasma at 1.5 mg/kg, po measured after 1 hrs by LC/MS/MS analysis; type: ADME, organism-based
[23] = Drug concentration in rat plasma at 4.5 mg/kg, po measured after 1 hrs by LC/MS/MS analysis; type: ADME, organism-based
[24] = Drug concentration in rat brain at 1.5 mg/kg, po measured after 1 hrs by LC/MS/MS analysis; type: ADME, organism-based; conditions: in vivo
[25] = system: Splenocyte; experiment: Antiinflammatory activity against LPS-stimulated Balb/c mouse splenocytes assessed as reduction in IL-6 at 100 nM incubated for 24 hrs by ELISA based method; type: functional; parameters: scale not given: the % may be the effect or the level left
[26] = Drug concentration in mouse C57BL/6 brain at 0.4 mg/kg,po measured at 2 hrs by LC-MS/MS analysis; type: ADME, organism-based; conditions: C57BL/6, mouse, read-out: Drug uptake
[27] = Drug concentration in mouse C57BL/6 brain at 0.4 mg/kg,iv measured at 2 hrs by LC-MS/MS analysis; type: ADME, organism-based; conditions: C57BL/6, mouse, read-out: Drug uptake

Row | SMILES | Activity [1] | pIC50 [3] | viability at 24 h, 0.1 µM [5] | remaining at 2 h [7] | Kp at 2 h [14] | also measured
1 | COC(=O)[C@@H](N)CCNC(=O)c1ccc2c(c1)C(=O)c1ccc(Nc3ccc(F)cc3F)cc1CC2 | Non-Toxic | 8.64 | 66% | 6% |  | Activity [2]: 5%; Drug uptake [4]: Not Active; Drug uptake [6]: Not Active
2 | O=C(O)CCNC(=O)c1ccc2c(c1)C(=O)c1ccc(Nc3ccc(F)cc3F)cc1CC2 | Non-Toxic | 8.26 | 66% | 97% | 1.25 | inhibition at 10 µM [8]: 33.6%; inhibition at 10 µM [9]: 54.8%; inhibition at 10 µM [10]: 3%; concentration at 2 h [11]: 103 ng/g; inhibition at 10 µM [12]: 11.8%; Activity [2]: 5%; inhibition at 10 µM [13]: 100%; inhibition at 10 µM [15]: 98.5%
3 | O=C(NC1(c2ccccc2)CC1)c1ccc2c(c1)C(=O)c1ccc(Nc3ccc(F)cc3F)cc1CC2 |  | 8.60 |  |  | 0.51 | concentration at 2 h [11]: 49 ng/g
4 | CN1CCN(c2cc(-c3ccncc3)c(-c3ccc4ccccc4c3)nn2)CC1 [MW-150] |  |  |  |  |  | Ct [16]: 1030 nmol/kg; concentration at 24 h [17]: 390 ng/mL
5 | O=C(NCCNCCO)c1ccc2c(c1)C(=O)c1ccc(Nc3ccc(F)cc3F)cc1CC2 |  | 8.77 |  |  | 0.17 | 
6 | O=C(NCCN1CC2(COC2)C1)c1ccc2c(c1)C(=O)c1ccc(Nc3ccc(F)cc3F)cc1CC2 |  | 8.23 |  | 47% | 0.16 | inhibition at 10 µM [8]: 0%; inhibition at 10 µM [9]: 83.6%; inhibition at 10 µM [10]: 18.3%; concentration at 2 h [11]: 68 ng/g; inhibition at 10 µM [12]: 76.6%; inhibition at 10 µM [13]: 93.6%; inhibition at 10 µM [15]: 88.7%
7 | COC(=O)CCNC(=O)c1ccc2c(c1)C(=O)c1ccc(Nc3ccccc3N)cc1CC2 | Non-Toxic | 7.54 | 66% |  |  | inhibition at 0.01 µM [18]: 50%; Activity [19]: 81%
8 | CSCC[C@H](NC(=O)c1ccc2c(c1)C(=O)c1ccc(Nc3ccc(F)cc3F)cc1CC2)C(=O)O |  | 7.96 |  |  |  | Drug uptake [4]: Not Active; Drug uptake [6]: Not Active
9 | O=C(N[C@@H]1[C@@H](O)[C@H](O)[C@@H](CO)O[C@H]1O)c1ccc2c(c1)C(=O)c1ccc(Nc3ccc(F)cc3F)cc1CC2 |  | 8.28 |  |  | 0.09 | concentration at 2 h [11]: 5.9 ng/g
10 | O=C(NCCN1CCNCC1)c1ccc2c(c1)C(=O)c1ccc(Nc3ccc(F)cc3F)cc1CC2 |  | 8.89 |  | 93% | 0.24 | 
11 | CN(C)CCNC(=O)c1ccc2c(c1)C(=O)c1ccc(Nc3ccccc3N)cc1CC2 |  | 8.08 |  | 50% | 0.59 | 
12 | O=C(O)CNC(=O)c1ccc2c(c1)C(=O)c1ccc(Nc3ccc(F)cc3F)cc1CC2 |  | 8.03 |  | 93% | 0.13 | concentration at 2 h [11]: 8.2 ng/g
13 | O=c1ncn2nc(Sc3ccc(F)cc3F)ccc2c1-c1c(Cl)cccc1Cl [NEFLAMAPIMOD] |  |  |  |  |  | Kp [20]: 1.7; Ct [21]: 359 nmol/kg; concentration at 1 h [22]: 33 ng/mL; concentration at 1 h [23]: 92 ng/mL; Ct [24]: 129 nmol/kg
14 | O=C(NC(CO)(CO)CO)c1ccc2c(c1)C(=O)c1ccc(Nc3ccc(F)cc3F)cc1CC2 | Non-Toxic | 8.52 | 66% |  |  | Activity [2]: 5%; Drug uptake [4]: Not Active; Drug uptake [6]: Not Active
15 | N[C@@H](CNC(=O)c1ccc2c(c1)C(=O)c1ccc(Nc3ccc(F)cc3F)cc1CC2)C(=O)O |  |  |  |  | 0.003 | 
16 | O=C(N[C@@H](Cc1ccccc1)C(=O)O)c1ccc2c(c1)C(=O)c1ccc(Nc3ccc(F)cc3F)cc1CC2 |  | 7.44 |  |  | 0.31 | concentration at 2 h [11]: 15 ng/g
17 | O=C(O)CCCNC(=O)c1ccc2c(c1)C(=O)c1ccc(Nc3ccc(F)cc3F)cc1CC2 | Non-Toxic | 7.92 | 66% | 99% | 4.38 | inhibition at 10 µM [8]: 16.2%; inhibition at 10 µM [9]: 38.1%; inhibition at 10 µM [10]: 2%; concentration at 2 h [11]: 98.2 ng/g; inhibition at 10 µM [12]: 14.4%; inhibition at 0.01 µM [18]: 50%; inhibition at 10 µM [13]: 63.2%; Activity [19]: 71%; inhibition at 10 µM [15]: 66%
18 | N[C@@H](CCCCNC(=O)c1ccc2c(c1)C(=O)c1ccc(Nc3ccc(F)cc3F)cc1CC2)C(=O)O |  | 8.46 |  |  | 0.01 | 
19 | COC(=O)CCNC(=O)c1ccc2c(c1)C(=O)c1ccc(Nc3ccc(F)cc3F)cc1CC2 | Non-Toxic | 8.92 | 66% | 0% |  | inhibition at 10 µM [8]: 27.3%; inhibition at 10 µM [9]: 68%; inhibition at 10 µM [10]: 73.7%; inhibition at 10 µM [12]: 59.9%; inhibition at 0.01 µM [18]: 50%; inhibition at 10 µM [13]: 100%; Activity [19]: 85%; inhibition at 10 µM [15]: 99.4%
20 | NCCNC(=O)c1ccc2c(c1)C(=O)c1ccc(Nc3ccc(F)cc3F)cc1CC2 | Non-Toxic | 8.60 | 66% |  |  | Activity [2]: 5%; Drug uptake [4]: Not Active; Drug uptake [6]: Not Active
21 | O=C(Nc1ccccc1)c1ccc2c(c1)C(=O)c1ccc(Nc3ccc(F)cc3F)cc1CC2 | Non-Toxic | 8.62 | 66% |  |  | Activity [2]: 5%; Drug uptake [4]: Not Active; Activity [25]: 51%; Drug uptake [6]: Not Active
22 | O=C(NCCOCCO)c1ccc2c(c1)C(=O)c1ccc(Nc3ccc(F)cc3F)cc1CC2 | Non-Toxic | 8.00 | 66% |  |  | Activity [2]: 5%; Drug uptake [4]: Not Active; Drug uptake [6]: Not Active
23 | O=C(O)CC[C@H](NC(=O)c1ccc2c(c1)C(=O)c1ccc(Nc3ccc(F)cc3F)cc1CC2)C(=O)O |  | 8.10 |  | 93% |  | 
24 | COC(=O)[C@H](C)NC(=O)c1ccc2c(c1)C(=O)c1ccc(Nc3ccc(F)cc3F)cc1CC2 |  | 8.52 |  | 93% |  | 
25 | CNC(=O)c1ccc2c(c1)C(=O)c1ccc(Nc3ccccc3N)cc1CC2 | Non-Toxic | 8.24 | 66% | 3% |  | concentration at 2 h [26]: 20 nM; concentration at 2 h [27]: 20 nM
26 | NC(=O)CCNC(=O)c1ccc2c(c1)C(=O)c1ccc(Nc3ccc(F)cc3F)cc1CC2 |  | 8.21 |  | 95% |  | 
27 | O=C(NO)c1ccc2c(c1)C(=O)c1ccc(Nc3ccc(F)cc3F)cc1CC2 |  | 8.28 |  | 13% |  | 
28 | COC(=O)CNC(=O)c1ccc2c(c1)C(=O)c1ccc(Nc3ccc(F)cc3F)cc1CC2 |  | 7.92 |  | 0% |  | 
29 | Nc1ccccc1Nc1ccc2c(c1)CCc1ccc(C(=O)NCCN3CCOCC3)cc1C2=O |  | 7.74 |  | < 38% | 0.08 | 
